Data published in PubChem BioAssay AID248 (DTP/NCI, 2004).
Where “and” joins values, the source holds several entries; their conditions need not be identical. Equal entries are not always repeated. Toxic doses and inconclusive results are not listed. No stated cut-off is given here; in the data, active means T/C of 150% or more; inactive means T/C below 125%.

System: L1210 leukemia ip in BDF1 mice, survival T/C
Assay: NCI In Vivo Anticancer Drug Screen. Data for tumor model L1210 Leukemia (intraperitoneal) in B6D2F1 (BDF1) mice
Conditions: endpoint: mean survival time, higher = longer survival
In short: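 Transplantable tumor model; survival measured in treated vs vehicle control mice. Value = treated/control.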

[1] = dose: 100.0 mg/kg/injection, schedule: Q01DX001 (ip), vehicle: other
[2] = dose: 100.0 mg/kg/injection, schedule: Q04DX003 (ip), vehicle: other
[3] = dose: 12.5 mg/kg/injection, schedule: Q04DX003 (ip), vehicle: saline
[4] = dose: 25.0 mg/kg/injection, schedule: Q04DX003 (ip), vehicle: saline
[5] = dose: 100.0 mg/kg/injection, schedule: Q04DX003 (ip), vehicle: saline
[6] = dose: 200.0 mg/kg/injection, schedule: Q04DX003 (ip), vehicle: saline
[7] = dose: 400.0 mg/kg/injection, schedule: Q04DX003 (ip), vehicle: saline
[8] = dose: 100.0 mg/kg/injection, schedule: Q04DX003 (ip), vehicle: saline with Tween-80
[9] = dose: 200.0 mg/kg/injection, schedule: Q04DX003 (ip), vehicle: saline with Tween-80
[10] = dose: 400.0 mg/kg/injection, schedule: Q04DX003 (ip), vehicle: saline with Tween-80
[11] = dose: 6.25 mg/kg/injection, schedule: Q04DX003 (ip), vehicle: saline
[12] = dose: 100.0 mg/kg/injection, schedule: Q04DX003 (ip), vehicle: Klucel (hydroxypropylcellulose) (HPC)
[13] = dose: 200.0 mg/kg/injection, schedule: Q04DX003 (ip), vehicle: Klucel (hydroxypropylcellulose) (HPC)
[14] = dose: 100.0 mg/kg/injection, schedule: Q01DX001 (ip), vehicle: saline
[15] = dose: 200.0 mg/kg/injection, schedule: Q01DX001 (ip), vehicle: saline
[16] = dose: 400.0 mg/kg/injection, schedule: Q01DX001 (ip), vehicle: saline

Measured: T/C

O=C(CCl)COP(=O)(O)O
inactive: dose: 6.25 mg/kg/injection, schedule: Q01DX009 (ip), vehicle: other 102 % of control | dose: 12.5 mg/kg/injection, schedule: Q01DX001 (ip), vehicle: other 102 % of control | dose: 12.5 mg/kg/injection, schedule: Q01DX009 (ip), vehicle: other 91 % of control | dose: 12.5 mg/kg/injection, schedule: Q04DX003 (ip), vehicle: other 91 % of control | dose: 25.0 mg/kg/injection, schedule: Q01DX001 (ip), vehicle: other 91 % of control | dose: 25.0 mg/kg/injection, schedule: Q01DX009 (ip), vehicle: other 101 % of control | dose: 25.0 mg/kg/injection, schedule: Q04DX003 (ip), vehicle: other 88 % of control | dose: 50.0 mg/kg/injection, schedule: Q01DX001 (ip), vehicle: other 96 % of control | dose: 50.0 mg/kg/injection, schedule: Q01DX009 (ip), vehicle: other 114 % of control | dose: 50.0 mg/kg/injection, schedule: Q04DX003 (ip), vehicle: other 93 % of control | [1] 89 % of control | [2] 106 % of control

CCCCCCCCCCOC(=O)C[n+]1cccc(C(N)=O)c1
inactive: [3] 96 % of control | [4] 102 % of control | dose: 50.0 mg/kg/injection, schedule: Q04DX003 (ip), vehicle: saline 93 % of control

CCC(CO)NCc1cc(=O)[nH]c(=O)[nH]1 (configuration not stated)
inactive: [5] 96 % of control | [6] 96 % of control | [7] 102 % of control

CCn1cnc2c(SC)ncnc21
inactive: dose: 75.0 mg/kg/injection, schedule: Q01DX001 (ip), vehicle: acetone 101 % of control | dose: 150.0 mg/kg/injection, schedule: Q01DX001 (ip), vehicle: acetone 106 % of control | dose: 300.0 mg/kg/injection, schedule: Q01DX001 (ip), vehicle: acetone 108 % of control

CC(=O)c1cccc(NC(=O)c2ccc(C(=O)Nc3cccc(C(C)=O)c3)cc2)c1
inactive: [1] 104 % of control | dose: 200.0 mg/kg/injection, schedule: Q01DX001 (ip), vehicle: other 102 % of control | dose: 400.0 mg/kg/injection, schedule: Q01DX001 (ip), vehicle: other 89 % of control

O=c1ncc2[nH]c(I)nc2[nH]1
inactive: dose: 100.0 mg/kg/injection, schedule: Q01DX001 (ip), vehicle: carboxymethylcellulose (CMC) 96 % of control

CN/N=C/c1ccc(O)c(OC)c1
inactive: [8] 95 % of control | [9] 90 % of control | [10] 91 % of control

Nc1ccccc1N=Cc1cc(F)ccc1[N+](=O)[O-]
inactive: [2] 97 % of control | dose: 200.0 mg/kg/injection, schedule: Q04DX003 (ip), vehicle: other 102 % of control | dose: 400.0 mg/kg/injection, schedule: Q04DX003 (ip), vehicle: other 114 % of control

CN(C)CCCC1c2ccccc2Oc2ccc(C(F)(F)F)cc21 (configuration not stated)
inactive: dose: 0.78 mg/kg/injection, schedule: Q04DX003 (ip), vehicle: saline 103 % of control | dose: 1.56 mg/kg/injection, schedule: Q04DX003 (ip), vehicle: saline 102 % of control | dose: 3.12 mg/kg/injection, schedule: Q04DX003 (ip), vehicle: saline 105 % of control | [11] 105 % of control | [3] 102 % of control | [4] 117 % of control | dose: 50.0 mg/kg/injection, schedule: Q01DX009 (ip), vehicle: saline 100 % of control

CCOC1c2cc(OC)ccc2C(=O)CCN1S(=O)(=O)c1ccc(C)cc1 (configuration not stated)
inactive: [12] 92 % of control | [13] 91 % of control | dose: 400.0 mg/kg/injection, schedule: Q04DX003 (ip), vehicle: Klucel (hydroxypropylcellulose) (HPC) 96 % of control

CC1(C)OC(C)(C)C1(O)C(=O)O
inactive: [14] 97 % of control | [15] 101 % of control | [16] 105 % of control

CC1(C(=O)O)C2CCC(C2)C1C(=O)O (configuration not stated)
inactive: [5] 107 % of control | [6] 102 % of control | [7] 105 % of control

CC(=O)OCCOC(C)=O
inactive: [14] 103 % of control | [15] 97 % of control | [16] 94 % of control

CCC(CC)OC(=O)c1cc([N+](=O)[O-])cc([N+](=O)[O-])c1
inactive: [8] 91 % of control | [9] 87 % of control | [10] 94 % of control

SC1(S)CN2CCC1CC2
inactive: dose: 6.25 mg/kg/injection, schedule: Q01DX009 (ip), vehicle: saline 96 % of control | [11] 105 % of control | dose: 12.5 mg/kg/injection, schedule: Q01DX009 (ip), vehicle: saline 94 % of control | [3] 91 % of control | [4] 93 % of control

Cc1cn(Cc2ccc(Cl)cc2Cl)c(C)n1
inactive: dose: 25.0 mg/kg/injection, schedule: Q01DX001 (ip), vehicle: Klucel (hydroxypropylcellulose) (HPC) 100 % of control | dose: 25.0 mg/kg/injection, schedule: Q01DX009 (ip), vehicle: Klucel (hydroxypropylcellulose) (HPC) 97 % of control and 109 % of control | dose: 50.0 mg/kg/injection, schedule: Q01DX001 (ip), vehicle: Klucel (hydroxypropylcellulose) (HPC) 100 % of control | dose: 50.0 mg/kg/injection, schedule: Q04DX002 (ip), vehicle: Klucel (hydroxypropylcellulose) (HPC) 102 % of control and 108 % of control | dose: 100.0 mg/kg/injection, schedule: Q01DX001 (ip), vehicle: Klucel (hydroxypropylcellulose) (HPC) 94 % of control

O=C1CCS(=O)O1 (configuration not stated)
inactive: dose: 100.0 mg/kg/injection, schedule: Q04DX002 (ip), vehicle: Klucel (hydroxypropylcellulose) (HPC) 100 % of control | dose: 200.0 mg/kg/injection, schedule: Q04DX002 (ip), vehicle: Klucel (hydroxypropylcellulose) (HPC) 95 % of control | dose: 400.0 mg/kg/injection, schedule: Q04DX002 (ip), vehicle: Klucel (hydroxypropylcellulose) (HPC) 89 % of control

COc1ccc2c(c1)CCC2=O
inactive: dose: 50.0 mg/kg/injection, schedule: Q01DX009 (ip), vehicle: saline with Tween-80 112 % of control | dose: 100.0 mg/kg/injection, schedule: Q01DX009 (ip), vehicle: saline with Tween-80 112 % of control | [12] 91 % of control | [13] 96 % of control

CN(C(=O)c1cccc([N+](=O)[O-])c1)C1CCCCC1
inactive: dose: 100.0 mg/kg/injection, schedule: Q01DX009 (ip), vehicle: Klucel (hydroxypropylcellulose) (HPC) 93 % of control | dose: 200.0 mg/kg/injection, schedule: Q01DX009 (ip), vehicle: Klucel (hydroxypropylcellulose) (HPC) 100 % of control | dose: 400.0 mg/kg/injection, schedule: Q01DX009 (ip), vehicle: Klucel (hydroxypropylcellulose) (HPC) 96 % of control

O=NN(Cc1ccccc1)C(c1ccccc1)S(=O)(=O)O (configuration not stated)
inactive: dose: 75.0 mg/kg/injection, schedule: Q01DX009 (ip), vehicle: saline 87 % of control | [14] 112 % of control | dose: 150.0 mg/kg/injection, schedule: Q01DX009 (ip), vehicle: saline 87 % of control | [15] 100 % of control | dose: 300.0 mg/kg/injection, schedule: Q01DX009 (ip), vehicle: saline 97 % of control | [16] 93 % of control

CCOC(=O)C(C(=S)Nc1ccccc1)=S(C)C
inactive: dose: 100.0 mg/kg/injection, schedule: Q04DX002 (ip), vehicle: saline with Tween-80 87 % of control | dose: 200.0 mg/kg/injection, schedule: Q04DX002 (ip), vehicle: saline with Tween-80 87 % of control | dose: 400.0 mg/kg/injection, schedule: Q04DX002 (ip), vehicle: saline with Tween-80 91 % of control
